US11213559B2, “Formulation for treatment of irritable bowel disease” (ABOCA S.P.A. SOCIETA′ AGRICOLA, priority 2012, dated 2022)

Tests used:
[1] = test system: colitis induced by acetic acid; test: model of colitis induced by acetic acid in rats; format: in vivo, rat; settings: average ± SEM
Protocol: To test in vivo the efficacy of the composition of the invention, said composition was formulated in capsules and was assessed in terms of its ability to protect the susceptibility of the intestinal mucosa to irritating stimuli. Based on the presumed mechanism of the product to act on the inflammatory component of IBS (supported only recently by the literature) by means of a local, indirect protective and anti-inflammatory action also stemming from mucoadhesion, an experimental model of inflammatory colitis, not specific for IBS, was selected.
The study was carried out on a model of colitis induced by acetic acid, as described by McPherson B R, Pfeiffer C J (1978) Experimental Production of Diffuse Colitis in Rats. Digestion;17:135-150; Mousavizadeh K, Rahimian R, Fakhfouri G, Aslani F S, Ghafourifar P. (2009) Anti-inflammatory effects of 5-HT receptor antagonist, tropisetron on experimental colitis in rats. Eur J Clin Invest.;39(5):375-83; Noronha-Blob L, Lowe V C, Muhlahauser R O, Burch R M. (1993) NPC 15669, an inhibitor of neutrophil recruitment, is efficacious in acetic acid-induced colitis in rats. Gastroenterology, 104:1021-9.
Each group was formed by 10 rats in accordance with the following schema • 1. Rats without colitis, treated with vehicle 10 ml/kg, (p.o.); • 2. Rats with colitis, treated with vehicle 10 ml/kg, (p.o.); • 3. Rats with colitis, treated with the composition of the invention, (p.o.); • 4. Rats with colitis, treated with dexamethasone, (p.o) as reference. Macroscopic and microscopic parameters were measured.
In particular, the macroscopic damage to the colon, the colon index (mg of colon/grams of rat) and the activity of myeloperoxidase, an enzyme contained in the intracellular azurophilic granules of the polymorphonuclear leukocytes (PMNs), which can therefore be used as an indicator of the accumulation of the migrated neutrophils in the tissues during an inflammatory process, are shown.
To verify the effectiveness of the use of the incense ingredient in the formulations, the same experiment of inflammatory colitis induced by acetic acid was carried out with a formulation devoid of incense (ABO-INT-10-2), which corresponds to the formulation Abo-INT 10 (general formulations on page 16), devoid of incense.

[2] = test system: duodenum; test: protective effect on intestinal mucosa in Ussing chamber, duodenum; format: in vivo, rat; settings: isolated (stress) rats, composition 500 mg/kg, dexamethasone 1 mg/kg intragastrically, average ±SD
Protocol: (§1) The experiment was conducted in order to verify the effects of the tested substances on the artificially damaged intestinal mucosa ex vivo (for example hydrochloric acid).
(§2) […] male Sprague Dawley rats weighing approximately 200-250 g were used for the test.
(§3) 4 groups of 8 rats A, B, C, D were formed, respectively containing untreated rats, rats treated with 1.0 ml saline solution intragastrically, rats treated with 1.0 ml (500 mg/kg of body weight) of composition of the invention intragastrically, and rats treated with 1.0 ml of dexamethasone (1 mg/kg of body weight) intragastrically.
(§4) The animals in groups A, B, C and D were deprived of food for 18 hours.
Four rats per group were anaesthetised 30 minutes after the above-indicated administration by means of intraperitoneal injection and were kept in a heated atmosphere.
A sample of the duodenum was then dissected from these rats and mounted between the two half-chambers of the Ussing chamber and damage was induced using hydrochloride (pH 8.0; pH 5.5). […]
(§5) The ddp in mV through the mucosal membrane was measured directly as well as the short-circuit current, and these were monitored for 15 minutes whilst the transmembrane resistance was calculated in ohm x cm^2 using Ohm's law. […]
(§6) The system was then stabilised for 10 minutes and the same parameters as indicated above were then measured for 15 minutes. […]

[3] = test system: ileum; test: protective effect on intestinal mucosa in Ussing chamber, ileum; format: in vivo, rat; settings: isolated (stress) rats, composition 500 mg/kg, dexamethasone 1 mg/kg intragastrically, average ±SD
Protocol: as §1, §2, §3, §4
Four rats per group were then anaesthetised 50 minutes after the above-indicated administration by means of intraperitoneal injection and were kept in a heated atmosphere.
A sample of the ileum was then dissected from these rats and mounted between the two half-chambers of the Ussing chamber and damage was induced using hydrochloride (pH 8.0; pH 6.5). […]
as §5, §6

[4] = test system: CaCo-2; test: antioxidant activity test (DCFH-DA, oxidative stress by oxygenated water); format: cell-based, human; settings: 0.15 mg/ml
Protocol: In order to verify the antioxidant power of the composition of the invention in a biological system similar to the intestinal epithelium (CaCo-2), the following tests were carried out: Evaluation of the antioxidant activity of the sample on human cells subject to chemical, progressive oxidative stress. The assessment of the antioxidant action is acquired from the quantification of the formation of free radicals in cells exposed to the sample and to oxidative stress. The antioxidant activity of the sample in analyses was evaluated by comparison with that of a safe hydrosoluble antioxidant, such as vitamin C. The protocol is based on the use of a fluorescent probe called 2′,7′-dichlorofluorescein diacetate (DCFH-DA), a non-fluorescent stable molecule that enters the cells, bonds to the membrane macromolecules, where it is hydrolysed from cytoplasmic esterases to give dichlorofluorescein (DCFH), a molecule that again is non-fluorescent. DCFH, in the presence of free radicals, is oxidised, forming a highly fluorescent molecule: DCF. The oxidative stress is induced via oxygenated water. The radicals produced constitutively from the cells with the addition of the sample, but without the addition of the oxidising agent, were also monitored as a negative control (absence of oxidant activity of the composition of the invention).

[5] = Table 1, rats with 4% acetic acid colitis, ABO/INT-10 1 g/kg, dexamethasone 1 mg/kg p.o.
[6] = Table 3, experiment with formulation devoid of incense, ABO/INT-10-2 1 g/kg, dexamethasone 1 mg/kg
[7] = Table 4, experiment with formulation devoid of incense, ABO/INT-10-2 1 g/kg, dexamethasone 1 mg/kg

Compound | Faecal excretion number [1, 5] | Faecal excretion weight [1, 5] | Body weight (g) Final ([1]; Table 1, rats with 4% acetic acid colitis, final, ABO/INT-10 1 g/kg, dexamethasone 1 mg/kg p.o.) | Macroscopic damage ([1]; Table 2, colon, rats with 4% acetic acid colitis, composition 1 g/kg, dexamethasone 1 mg/kg p.o.) | Colon index ([1]; Table 2, mg of colon/grams of rat, composition 1 g/kg, dexamethasone 1 mg/kg p.o.) | MPO (U/mg tissue) ([1]; Table 2, myeloperoxidase activity, after 24 hours, composition 1 g/kg, dexamethasone 1 mg/kg p.o.) | Defecations number [1, 6] | Defecations weight [1, 6] | Weight variation (g) [1, 6] | Colon index (mg/g) [1, 7] | MPO (U/mg tissue) [1, 7] | Macroscopic damage [1, 7] | average value of resistance of the duodenum after induction of damage ([2]; Krebs buffer at pH 5.5) | average value of resistance of the duodenum ([2]; physiological pH Krebs buffer, 30 minutes) | average value of resistance of the ileum after induction of damage ([3]; Krebs buffer at pH 6.5) | average value of resistance of the ileum ([3]; physiological pH Krebs buffer, 50 minutes) | % reduction of free radicals ([4]; 30 min) | % reduction of free radicals ([4]; 60 min) | % reduction of free radicals ([4]; 90 min) | % reduction of free radicals ([4]; 120 min)
C[C@@H]1C[C@H]2[C@@H]3CCC4=CC(=O)C=C[C@]4(C)[C@@]3(F)[C@@H](O)C[C@]2(C)[C@@]1(O)C(=O)CO [Dexamethasone, dexamethasone] | 40.40 ± 8.035 | 9.440 ± 1.790 g | 214.3 ± 4.177 g | 4.417 ± 1.052 | 6.041 ± 0.341 mg/g | 15.387 ± 6.136 U/mg tissue | 42.10 ± 9.011 | 9.44 ± 1.79 g | 2.167 ± 1.493°°** g | 6.041 ± 0.341°** mg/g | 16.423 ± 5.9780°* U/mg tissue | 4.417 ± 1.052°°** | 48.0±12.7 ohm×cm^2 | 50.4±13.9 ohm×cm^2 | 39.7±8.1 ohm×cm^2 | 50.6±13.4 ohm×cm^2 | – | – | – | –
O=C1O[C@H]([C@@H](O)CO)C(O)=C1O [vitamin C] | – | – | – | – | – | – | – | – | – | – | – | – | – | – | – | – | 38% | 44.8% | 48% | 47%
